The results in this text go back to patent publication US20100086602A1, “PHARMACEUTICAL COMPOSITION CONTAINING STATIN-ENCAPSULATED NANOPARTICLE” (priority 2006, published 2010).

A short description of series [1]: Serological assessment 14 days after hindlimb ischemia. In kind it is in vivo, mice. The method, then: (§1) Male C57BL/6J wild-type mice were bred and maintained in the Laboratory of Animal Experiments at Kyushu University. After anesthesia with an intraperitoneal injection of ketamine hydrochloride and xyladine hydrochloride, animals underwent surgical ligation and resection of the left femoral artery to produce unilateral hindlimb ischemia. […] As a control, a group of PLGA-FITC-mice (FITC group) received intramuscular injections of FITC-loaded PLGA nanoparticles (0.16 mg/100 μl), a group of PEG/CS-PLGA-FITC-mice (PEG/CS-FITC group) received intramuscular injections of FITC-loaded PEG/CS PLGA nanoparticles (0.16 mg/100 μl), and another group of mice (NT group) received no treatment.
There were no difference between each group in the total cholesterol, triglyceride, myoglobin, CK, BUN and Cre values in serum.

In series [2] the test system is unilateral hindlimb ischemia. In words: Capillary density by immunohistochemical staining with anti-mouse PECAM-1 (CD31) antibody. Format: in vivo, mice. Particulars: day 14 after hindlimb ischemia; 0.01 mg statin intramuscular. The method, then:
(§2) A group of PLGA-Pit-mice (PLGA-Pit group) and a group of PEG/CS-PLGA-Pit-mice (PEG/CS-Pit group) received intramuscular injections of pitavastatin-loaded PLGA nanoparticles (0.18 mg/100 μl) and pitavastatin-loaded PEG/CS-PLGA nanoparticles (0.44 mg/100 μl, each containing 0.01 mg of pitavastatin), respectively. As control, a group of PLGA-mice (PLGA group) received intramuscular injections of PLGA nanoparticles (0.18 mg/100 μl) and another group of mice (NT group) received no treatment.

In series [3] the test system is hindlimb ischemia. In words: Recovery rate of ischemic tissues, pitavastatin dose comparison (FIG. 15). In kind it is in vivo, mice. Particulars: intramuscular, one portion; only pitavastatin 0.4, 4 and 20 mg/kg or PLGA-pitavastatin; days 3, 7 and 14. On the procedure:
The recovery rate of ischemic tissues were determined for ischemic mice injected intramuscularly with only nanoparticles, only pitavastatin (0.4, 4 and 20 mg/kg) or PLGA-pitavastatin in one portion.

The subject of series [4] is unilateral hindlimb ischemia. Description: Laser Doppler perfusion imaging of limb blood flow after hindlimb ischemia. Format: in vivo, mice. The note with it: single intramuscular injection containing 0.01 mg statin (0.5 mg/kg), days 0, 3, 7 and 14, versus no-treatment. On the procedure: as §2
In series [5] the test system is hindlimb ischemia. In words: Angiography 35 days after hindlimb ischemia (angiographic score). Format: in vivo, Japanese rabbits. The note with it: Mean±SE; 35 days after ischemia, 28 days after intramuscular injection of 5 ml (0.33 mg/ml pitavastatin). On the procedure: (§3) Japanese rabbits (2.7 to 3.2 kg) underwent surgical ligation and resection of the unilateral femoral artery to produce hindlimb ischemia. After 7 days, animals were randomized to four groups: PLGA-pitavastatin group, PLGA-FITC group, pitavastatin group and PBS group, and received therapeutic substances by intra-ischemic-muscular injection of 5 ml (concentration of pitavastatin-loaded nanoparticle 6 mg/ml, corresponding to 0.33 mg/ml of pitavastatin). After 28 days from intramuscular injection (35 days after ischemia), animals were performed angiography. Mice were inserted catheters (5 Fr) from right internal carotid artery and the catheters were placed in left internal iliac artery under fluoroscopic control. 0.25 mg of Millisrol were injected into artery through catheters, followed by injection of imaging agents at the rate of 1 ml/second for 5 seconds to perform angiography. An assessment for the number of blood vessel was carried out by using static images at 3 second after injection of imaging agents. 5 mm of grids were prepared within the range surrounded by lower end of femur (upper end), lower end of quadriceps (lower end), arteria iliaca interna (trunks are not counted, inner end) and distal portion of severed blood vessel (outer end). Angiographic score was calculated by dividing the number of grids in which blood vessel is found by total number of grids.

In series [6] the test system is hindlimb ischemia. Description: Partial pressure ratio of oxygen in arterial and venous blood during muscular exercise of ischemic hindlimb. Format: in vivo, Japanese rabbit. Particulars: 35 days after ischemia; exercise by electric stimulus for 30 minutes; 0, 15 and 30 minutes. On the procedure: as §3, with “0.25 mg of Millisrol were injected into artery through catheters, followed by injection of imaging agents at the rate of 1 ml/second for 5 seconds to perform angiography. An assessment for the number of blood vessel was carried out by using static images at 3 second after injection of imaging agents.” left out
The effect of nanostatin on insufficient blood from at ischemic hindlimb on muscular exercising is examined. […] The partial pressure ratio of oxygen in arterial and venous blood in each time point was determined. The concentration of hemoglobine was determined at 0 minute. […]

Series [7] relates to unilateral hindlimb ischemia. In words: Arteriogenesis by immunohistochemical staining with α-SMA. In kind it is in vivo, mice. Particulars: day 14 after hindlimb ischemia; 0.01 mg pitavastatin intramuscular. The method, then: as §2
Arteriogenesis was determined by immunohistochemical staining with α-SMA.

Series [8] has as its system muscular tissues of ischemic hindlimb. Also on record: species or system mice. Particulars: mouse, in vivo. The method, then:
as §1

“Also recorded” adds a separate entry of the source.

In the case of `CC(C)c1c(C(=O)Nc2ccccc2)c(-c2ccccc2)c(-c2ccc(F)cc2)n1CC[C@@H](O)C[C@@H](O)CC(=O)O` [atorvastatin], the signs of rhabdomyolysis entry in series [1] (intramuscularly injected mice) is recorded as “Neither group of atorvastatin nor atorvastatin-loaded nanoparticle intramuscularly injected mice showed the signs of rhabdomyolysis”. In series [1] (serum, n = 4), this molecule yielded a BUN of 30.3 ± 2.8 mg/dL, a CK of 159.0 ± 37.7 IU/L, a Cre of 0.083 ± 0.009 mg/dL and a myoglobin of less than 10 ng/mL. In series [1] (serum, n = 4), this molecule had a total cholesterol of 66.0 ± 3.2 mg/dL and a triglyceride of 13.5 ± 1.8 mg/dL.

As for `O=C(O)C[C@H](O)C[C@H](O)/C=C/c1c(C2CC2)nc2ccccc2c1-c1ccc(F)cc1` [pitavastatin], the “capillary density, endothelial cells (CD31 positive cells)” value in series [2] was “comparable to no-treatment group”. Besides, the “recovery of ischemic tissues / angiogenesis (ratio of ischemic region to normal region)” value in series [3] is “does not result in angiogenesis; also recorded: No angiogenesis”. Besides, the “limb blood flow at ischemic side (LDPI index, ratio of ischemic to normal limb)” value is on record as “comparable to no-treatment group” in series [4] and “no improvement of blood flow” in series [4] (listed as Pit). The Angiographic score in series [5] is 0.51±0.04. Besides, in series [6], the “partial pressure ratio of oxygen in arterial and venous blood during muscular exercise” value is “increases of partial pressure ratio of oxygen in arterial and venous blood were shown”. The “α-SMA positive vascular structure (arteriogenesis)” value in series [7] was “comparable to no-treatment group”.

Consider FITC, for which the “nanoparticles remaining in muscular tissues (fluorescence)” value in series [8] is recorded as “nanoparticles remain in muscular tissues on day 7”.
